Usually Kd stands for a measure of binding affinity in units of concentration. A lower Kd goes with higher affinity.

Changes are numbered by the printed parent chain.

The record followed here is paper doi:10.1101/2024.02.28.577416v1 (biorxiv, 2024).

Assay [1] has as its target T1, SCO4122 (Streptomyces coelicolor, UniProt Q9KYE8).
T1 sequence (Q9KYE8 1-182): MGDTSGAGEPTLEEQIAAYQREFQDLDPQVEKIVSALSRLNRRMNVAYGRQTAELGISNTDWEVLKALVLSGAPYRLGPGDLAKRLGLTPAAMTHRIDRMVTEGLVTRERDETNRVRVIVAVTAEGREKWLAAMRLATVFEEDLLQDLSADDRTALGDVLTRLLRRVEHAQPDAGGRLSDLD
Put plainly: SPR. Type of assay: binding.

The target of assay [2] is T2, SCO4122 (Streptomyces coelicolor, UniProt Q9KYE8, M93L).
T2 sequence (Q9KYE8 1-182 M93L): T1 sequence (Q9KYE8 1-182) with M93L
Put plainly: SPR. Type of assay: binding.

Molecule `CC[n+]1c(-c2ccccc2)c2cc(N)ccc2c2ccc(N)cc21` [EtBr] displayed a dissociation constant Kd at SCO4122 [1] of 1.39 µM. This lies in the single-digit micromolar range. In the case of `O=C(N[C@H](CO)[C@H](O)c1ccc([N+](=O)[O-])cc1)C(Cl)Cl` [chloramphenicol], binding on SCO4122 [1] was put at a Kd of 2000 µM. This Kd lies about 1400-fold higher than the previous one. The molecule `O=C(O)c1cn(C2CC2)c2cc(N3CCNCC3)c(F)cc2c1=O` [ciprofloxacin] displayed a Kd at SCO4122 [1] of 31 µM. This Kd lies about 65-fold lower than the previous one. For `[H]/N=C(/N)N[C@H]1[C@H](O)[C@@H](O)[C@H](O[C@@H]2O[C@@H](C)[C@](O)(C=O)[C@H]2O[C@@H]2O[C@@H](CO)[C@H](O)[C@@H](O)[C@@H]2NC)[C@@H](N/C(N)=N\[H])[C@@H]1O` [streptomycin], the Kd on SCO4122 [2] is 53.9 µM; at SCO4122 [1] it was 0.73 µM. In the case of `CN(C)[C@@H]1C(=O)C(C(N)=O)=C(O)[C@@]2(O)C(=O)C3=C(O)c4c(O)cccc4[C@@](C)(O)[C@H]3C[C@@H]12` [tetracycline], the dissociation constant (Kd) on SCO4122 [2] was 2.43 µM; at SCO4122 [1] it was 2.68 µM.
